# Results taken from patent publication US10059740B2, “Integrin interaction inhibitors for the treatment of cancer” (H. LEE MOFFITT CANCER CENTER AND RESEARCH INSTITUTE, INC., priority 2010, dated 2018).
# Like-named read-outs stand apart in the source and are kept apart here. Starred links: 1 amine or outer side, 2 acyl side, 3 side chain; linkers in the order of their positions; H or OH if unused. Positions of bridges follow the written chain, without caps; N, C: chain ends. Non-standard residues stand in square brackets, D forms with d. Residues, ends and D or L forms follow the SMILES beside them. No end group written: not given here. *: point of attachment. T1 = NH2CH2CH2N(SO2Me)CH2COOH, methylsulfonamido aminoethyl glycine linker; dProlinol(O-CH2CO) = O=C(COC[C@H]1CCCN1[*:1])[*:2]; N(2-Aminoethyl)Gly = O=C(CN(CCN[*:3])[*:1])[*:2]; Nle = CCCC[C@H](N)C(=O)O; Ms = CS(=O)(=O)*; Sar = CNCC(=O)O
# Assays:
# [1] = system: peripheral blood mononuclear cells (PBMC); test: Cell death in normal peripheral blood mononuclear cells, annexin V positivity and FACS; assay type: cell-based; conditions: 6.25-50 ug/ml, six hours
# Method: Peripheral blood mononuclear cells (PBMC) were isolated from a normal donor. Cells were treated with 6.25, 12.5, 25 and 50 ug/ml for six hours and cell death was measured by annexin V positivity and FACS analysis.
# (§1) CD34^+ hematopoietic progenitor cells were isolated from peripheral blood and treated for 2 hrs with integrin interaction inhibitors (12.5 and 50 μg/ml) and then plated in a methylcellulose media supplemented with growth factors supporting myeloid and erythroid colonies. Colonies were counted on day 12 post-plating. […] In addition, we evaluated the toxicity of integrin interaction inhibitors in normal peripheral blood mononuclear cells (PBMC).
# H929 myeloma cells [2] = assay type: cell-based; conditions: for activity relative to linear parent peptide (linear D-HYD1): in words
# Method: H929 cells were treated for 24 hours with varying concentrations of peptide. Cell death was measured by Topro-3 staining and FACS analysis. The IC50 values were obtained from linear regression analysis and an average value was obtained from 3 independent experiments.
# Table 4 legend: Structure activity relationship in H929 myeloma cells of cyclic INTEGRIN INTERACTION INHIBITORS derivatives. The minimal bioactive core sequence of INTEGRIN INTERACTION INHIBITORS WSVVM (SEQ ID NO:85) was cyclized using 2 novel reduced amide bond beta turn promoters and KLKLK (SEQ ID NO:27) as the non-recognition sequence. H929 cells were treated with varying concentrations of the indicated peptide for 24 h. Cell viability was determined using Topro-3 staining and FACS analysis after drug treatment. IC50 values were generated from linear regressions generated from the dose response curves (n=mean of 3 independent experiments).
# Using combinatorial peptide libraries and a functional binding assay, several peptides have been identified that inhibited α2β1 and α6β1 integrin mediated adhesion of prostate cancer cells to fibronectin, laminin and collagen IV.^1 They identified an all D-amino acid containing peptide referred as HYD1 ([…]) (SEQ ID NO:278) that blocks binding of epithelial prostate carcinoma cells to extracellular matrix components.^2,3 Hazlehurst and co-workers have truncated the N- and C-termini and alanine scan studies identified MVISW (SEQ ID NO:279) as the likely core region of linear D-HYD1 required for biological activity. […] The pentapeptide (KLKLK) (SEQ ID NO:27) was selected as the non-recognition strand to improve the solubility. N- to C-terminus cyclization of linear peptides was done to restrict the number of conformations available to the linear peptide which increases the affinity of the cyclized peptide for its target when the constraint stabilizes the bound conformation of the peptide. We synthesized cyclic D-HYD1 using a novel methylsulfonamide aminoethyl glycine linker T1 that connects two anti-parallel strands. […] The inverso- (peptide 2, Table 4) and partially modified retro-inverso (PMRI) (peptide 10) pentapeptide sequences of the recognition strand of cyclic III (Integrin Interaction Inhibitors also known as cyclic L-HYD1) peptide analogs were subsequently investigated for their potential to block beta integrin mediated cell adhesion. The retro-inverso design of biologically active peptides is a well-known strategy to design all D-amino acid peptides from potentially bioactive all L-peptide sequences with increased stability^4-7.
# A colony forming assay was used to compare induced cell death in H929 multiple myeloma cells. Cells were treated with integrin interaction inhibitors, shown in FIG. 5 and Table 4, and cell death was measured following 24 hour peptide treatment by TOPRO-3 staining and FACS analysis.
# [3] = Weight and overt toxicity of mice injected with c-HYD1; assay type: in vivo
# Method: (§2) Briefly, 50,000 H929 myeloma cells were engrafted into the bone implant for 10 days prior to initiation of peptide treatment. Following tumor engraftment mice were randomized (0 time point) and injected with 8 mg/kg c-HYD1 or vehicle control (VC) daily (I.P. injections) for 14 days and every other day from day 14-28 at which time treatment stopped. Tumor burden was measured by circulating Kappa levels by ELISA weekly. N=10 mice for vehicle control (VC) and 9 mice for c-HYD1 treated.
# FIG. 42 is a graph showing the effect of cyclized HYD1 (c-HYD1) injection on the weight of mice.
# H929 myeloma cells [4] = test: MM SCID-Hu in vivo model, tumor burden by circulating Kappa levels (ELISA); design: species or system mice; conditions: 8 mg/kg I.P. daily 14 days, every other day day 14-28; p<0.05 ANOVA vs vehicle
# Method: as §2, §1
# U266 = test: Drug combination, cell viability by CT-Blue assay, Chou and Talalay Combination Index; assay type: cell-based; conditions: combination with the named agent
# [5] = cyclic III peptide analogs, Table 8, H929 cells, TOPRO 3, read-out: IC50
molecule,measurement,setting,value
CC[C@@H](C)[C@@H](NC(=O)[C@H](N)CCCCN)C(=O)N[C@H](CCCCN)C(=O)N[C@H](CCSC)C(=O)N[C@@H](C(=O)N[C@@H](C(=O)N[C@H](CO)C(=O)N[C@H](Cc1c[nH]c2ccccc12)C(=O)N[C@H](CCCCN)C(=O)NCC(=O)O)[C@H](C)CC)C(C)C [HYD1],cell death in normal PBMC,[1],more potent in MM cells (H929) compared to normal hematopoietic cells
"CCCC[C@@H]1NC(=O)CN(S(C)(=O)=O)CCNC(=O)[C@H](CCCCN)NC(=O)[C@H](CC(C)C)NC(=O)[C@H](CCCCN)NC(=O)[C@H](CCC(N)=O)NC(=O)[C@H](CCCCN)NC(=O)COC[C@H]2CCCN2C(=O)[C@H](Cc2c[nH]c3ccccc23)NC(=O)[C@H](C)NC(=O)[C@H](C(C)C)NC(=O)[C@H](C(C)C)NC1=O [Peptide 20, KQKLKT1N*VVAWT3] (Ms-[N(2-Aminoethyl)Gly][Nle]VVAW[dProlinol(O-CH2CO)]KQKLK; lactam 1-C)",IC50,H929 myeloma cells [2]; 24 h,18 µM
"CCCC[C@@H]1NC(=O)CN(S(C)(=O)=O)CCNC(=O)[C@H](CCCCN)NC(=O)[C@H](CCC(N)=O)NC(=O)[C@H](CCCCN)NC(=O)[C@H](CC(C)C)NC(=O)[C@H](CCCCN)NC(=O)COC[C@H]2CCCN2C(=O)[C@H](Cc2c[nH]c3ccccc23)NC(=O)[C@H](C)NC(=O)[C@H](C(C)C)NC(=O)[C@H](C(C)C)NC1=O [Peptide 21, KLKQKT1N*VVAWT3] (Ms-[N(2-Aminoethyl)Gly][Nle]VVAW[dProlinol(O-CH2CO)]KLKQK; lactam 1-C)",IC50,H929 myeloma cells [2]; 24 h,25 µM
"CCCC[C@@H]1NC(=O)[C@H](C(C)C)NC(=O)[C@H](C(C)C)NC(=O)[C@H](C)NC(=O)[C@H](Cc2c[nH]c3ccccc23)NC(=O)COC[C@H]2CCCN2C(=O)[C@H](CCCCN)NC(=O)CN(C)C(=O)[C@H](CCCCN)NC(=O)CN(C)C(=O)[C@H](CCCCN)NC(=O)COC[C@H]2CCCN2C1=O [Peptide 23, KXKXKT3WAVVN*T3] (cyclo(K[Sar]K[Sar]K[dProlinol(O-CH2CO)]WAVV[Nle][dProlinol(O-CH2CO)]))","bioactivity of cyclic III peptide analogs, in words",H929 myeloma cells [2]; SAR discussion of Table 8,poor bioactivity
"CCCC[C@@H]1NC(=O)CN(S(C)(=O)=O)CCNC(=O)[C@H](CCCCN)NC(=O)[C@H](CC(C)C)NC(=O)[C@H](CCCCN)NC(=O)[C@H](CC(C)C)NC(=O)[C@H](CCCCN)NC(=O)COC[C@H]2CCCN2C(=O)[C@H](Cc2c[nH]c3ccccc23)NC(=O)[C@H](C)NC(=O)[C@H](CC(C)C)NC(=O)[C@H](C(C)C)NC1=O [Peptide 24, KLKLKT1N*VLAWT3] (Ms-[N(2-Aminoethyl)Gly][Nle]VLAW[dProlinol(O-CH2CO)]KLKLK; lactam 1-C)",IC50,H929 myeloma cells [2]; [5],10 µM
"CCCC[C@@H]1NC(=O)CN(S(C)(=O)=O)CCNC(=O)[C@H](CCCCN)NC(=O)[C@H](CC(C)C)NC(=O)[C@H](CCCCN)NC(=O)[C@H](CC(C)C)NC(=O)[C@H](CCCCN)NC(=O)COC[C@H]2CCCN2C(=O)[C@H](Cc2c[nH]c3ccccc23)NC(=O)[C@H](C)NC(=O)[C@H]([C@@H](C)CC)NC(=O)[C@H](C(C)C)NC1=O [Peptide 25, KLKLKT1N*VIAWT3] (Ms-[N(2-Aminoethyl)Gly][Nle]VIAW[dProlinol(O-CH2CO)]KLKLK; lactam 1-C)",IC50,H929 myeloma cells [2]; [5],10 µM
"CCCC[C@@H]1NC(=O)CN(S(C)(=O)=O)CCNC(=O)[C@H](CCCCN)NC(=O)[C@H](CC(C)C)NC(=O)[C@H](CCCCN)NC(=O)[C@H](CC(C)C)NC(=O)[C@H](CCCCN)NC(=O)COC[C@H]2CCCN2C(=O)[C@H](Cc2c[nH]c3ccccc23)NC(=O)[C@H](C)NC(=O)[C@H](Cc2ccccc2)NC(=O)[C@H](C(C)C)NC1=O [Peptide 26, KLKLKT1N*VFAWT3] (Ms-[N(2-Aminoethyl)Gly][Nle]VFAW[dProlinol(O-CH2CO)]KLKLK; lactam 1-C)",IC50,H929 myeloma cells [2]; [5],9 µM
CCCC[C@@H]1NC(=O)CN(S(C)(=O)=O)CCNC(=O)[C@H](CCCCN)NC(=O)[C@H](CC(C)C)NC(=O)[C@H](CCCCN)NC(=O)[C@H](CC(C)C)NC(=O)[C@H](CCCCN)NC(=O)COC[C@H]2CCCN2C(=O)[C@H](Cc2c[nH]c3ccccc23)NC(=O)[C@H](C)NC(=O)[C@H](C(C)C)NC(=O)[C@H](C(C)C)NC1=O [c-HYD1] (Ms-[N(2-Aminoethyl)Gly][Nle]VVAW[dProlinol(O-CH2CO)]KLKLK; lactam 1-C),weight loss and overt signs of toxicity,[3],No weight loss or any overt signs of toxicity were observed
same,fold more potent than the parent linear HYD1 peptide,H929 myeloma cells [2]; H929 cells,30 fold
same,IC50,"H929 myeloma cells [2]; H929 cells, 24 hours, Topro-3 and FACS, read-out: IC50 value in H929 cells",1.2 µM
same,tumor growth (circulating Kappa levels),H929 myeloma cells [4],significantly reduces tumor growth
CSCC[C@H]1NC(=O)CN(S(C)(=O)=O)CCNC(=O)[C@@H](CCCCN)NC(=O)[C@@H](CC(C)C)NC(=O)[C@@H](CCCCN)NC(=O)[C@@H](CC(C)C)NC(=O)[C@@H](CCCCN)NC(=O)CN(S(C)(=O)=O)CCNC(=O)[C@@H](Cc2c[nH]c3ccccc23)NC(=O)[C@@H](CO)NC(=O)[C@@H](C(C)C)NC(=O)[C@@H](C(C)C)NC1=O [cyclic D-HYD1],activity relative to linear parent peptide (linear D-HYD1),H929 myeloma cells [2]; H929 cells,twice as active
same,activity relative to linear parent peptide (linear D-HYD1),"H929 myeloma cells [2]; H929 cells, listed as c-D-HYD1",about twice as active
COc1cccc2c1C(=O)c1c(O)c3c(c(O)c1C2=O)C[C@@](O)(C(=O)CO)C[C@@H]3O[C@H]1C[C@H](N)[C@H](O)[C@H](C)O1 [doxorubicin],"synergy with integrin interaction inhibitors, in words",U266,strong synergism
L-HYD1: the inverso (L-HYD1) cyclic compound (cyclo(KLKLKMVVSW)-T1; not fully specified (residue 5)),potency relative to cyclic D-HYD1,H929 myeloma cells [2]; H929 cells,2 fold
"MVVAW: cyclic compound with recognition strand MVVAW (SEQ ID NO:35), S replaced by A (also: recognition strand of a larger cyclic compound)",fold more potent than the parent linear HYD1 peptide,H929 myeloma cells [2]; H929 cells,approximately 10 fold
"NorLeuVVAW: cyclic compound combining both modifications, recognition strand NorLeuVVAW (SEQ ID NO:41) ([Nle]VVAW; also: cyclic, closure not given here)",fold more potent than the parent linear HYD1 peptide,H929 myeloma cells [2]; H929 cells,30 fold
"NorLeuVVSW: cyclic compound with recognition strand NorLeuVVSW (SEQ ID NO:39), methionine replaced by nor-Leucine ([Nle]VVSW; also: cyclic compound, closure not given here)",fold more potent than the parent linear HYD1 peptide,H929 myeloma cells [2]; H929 cells,15 fold
arsenic trioxide,"synergy with integrin interaction inhibitors, in words",U266,strong synergism
